According to paper PMC8564858, “Flavonoid-based inhibitors of the Phi-class glutathione transferase from black-grass to combat multiple herbicide resistance” (Organic & Biomolecular Chemistry, 2021):

What was measured:
AmGSTF1 [1] = experiment: CDNB assay: inhibition of AmGSTF1-catalysed glutathionylation of CDNB; type: biochemical, Alopecurus myosuroides; details: for CDNB Assay % Inhibition: three replicate measurements
AmGSTF1 [2] = experiment: Thermal shift assay; type: binding, Alopecurus myosuroides; details: difference in melting temperature compared to no ligand

With CCCCCC(=O)Oc1cc(O)c2c(=O)cc(-c3ccccc3)oc2c1 [compound 29] the “CDNB Assay % Inhibition” value (AmGSTF1 [1]; 100 µM compound) was 6%.

Br.COC(=O)C(CCCCN)Oc1cc(OC)cc2oc(-c3ccccc3)cc(=O)c12 (stereo not drawn) [compound 51] was tested, and the “CDNB Assay % Inhibition” value (AmGSTF1 [1]; 10 µM compound) was 25%, the “Thermal Shift Assay ∆Tm” value (AmGSTF1 [2]; 1 µM) was 0.20 and the “Thermal Shift Assay ∆Tm” value (AmGSTF1 [2]; 10 µM) was 0.43. The “Thermal Shift Assay ∆Tm” value (AmGSTF1 [2]; 100 µM) was 0.57.

In the case of COc1cc(OCC(=O)O)c2c(=O)cc(-c3ccccc3)oc2c1 [compound 40], the “CDNB Assay % Inhibition” value (AmGSTF1 [1]; 1 µM compound) is reported as 23%.

For O=c1c(-c2ccc(O)cc2)coc2cc(O)cc(O)c12 [compound 5, reference compound], the “CDNB Assay % Inhibition” value (AmGSTF1 [1]; 100 µM compound) was 47%.

COc1cc(OC)c2c(=O)cc(-c3ccnn3C)oc2c1 [compound 25] was tested, and the “CDNB Assay % Inhibition” value (AmGSTF1 [1]; 10 µM compound) was 9%, the “CDNB Assay % Inhibition” value (AmGSTF1 [1]; 100 µM compound) was 58% and the “Thermal Shift Assay ∆Tm” value (AmGSTF1 [2]; 1 µM) was 0. The “Thermal Shift Assay ∆Tm” value (AmGSTF1 [2]; 10 µM) was -0.03 and the “Thermal Shift Assay ∆Tm” value (AmGSTF1 [2]; 100 µM) was -0.10.

In the case of O=c1cc(-c2ccccc2)oc2ccc(O)cc12 [compound 4, reference compound], the “CDNB Assay % Inhibition” value (AmGSTF1 [1]; 100 µM compound) is reported as 61%, the “Thermal Shift Assay ∆Tm” value (AmGSTF1 [2]; 1 µM) is reported as 0.4 and the “Thermal Shift Assay ∆Tm” value (AmGSTF1 [2]; 10 µM) is reported as 0.0. For the same molecule, the “Thermal Shift Assay ∆Tm” value (AmGSTF1 [2]; 100 µM) was -0.2.

COc1cc(OC)c2c(=O)cc(-c3cnnc(C)c3)oc2c1 [18n] was tested, and the “CDNB Assay % Inhibition” value (AmGSTF1 [1]; 10 µM compound) was 8%, the “CDNB Assay % Inhibition” value (AmGSTF1 [1]; 100 µM compound) was 64% and the “Thermal Shift Assay ∆Tm” value (AmGSTF1 [2]; 1 µM) was -0.07. For the same molecule, the “Thermal Shift Assay ∆Tm” value (AmGSTF1 [2]; 10 µM) was -0.13 and the “Thermal Shift Assay ∆Tm” value (AmGSTF1 [2]; 100 µM) was -0.33.

For COc1cc(OC)c2c(=O)cc(-c3ccc4c(c3)OCO4)oc2c1 [18h], the “CDNB Assay % Inhibition” value (AmGSTF1 [1]; 10 µM compound) was 12%, the “CDNB Assay % Inhibition” value (AmGSTF1 [1]; 100 µM compound) was 33% and the “Thermal Shift Assay ∆Tm” value (AmGSTF1 [2]; 1 µM) was 0.27. The “Thermal Shift Assay ∆Tm” value (AmGSTF1 [2]; 10 µM) was 0.17 and the “Thermal Shift Assay ∆Tm” value (AmGSTF1 [2]; 100 µM) was 0.33.

COc1cc(OC)c2c(=O)cc(-c3ccn[nH]3)oc2c1 [compound 24] was tested, and the “CDNB Assay % Inhibition” value (AmGSTF1 [1]; 10 µM compound) was 6%, the “CDNB Assay % Inhibition” value (AmGSTF1 [1]; 100 µM compound) was 59% and the “Thermal Shift Assay ∆Tm” value (AmGSTF1 [2]; 1 µM) was -0.30. For the same molecule, the “Thermal Shift Assay ∆Tm” value (AmGSTF1 [2]; 10 µM) was -0.07 and the “Thermal Shift Assay ∆Tm” value (AmGSTF1 [2]; 100 µM) was -0.03.

In the case of O=C(Oc1cc(O)c2c(=O)cc(-c3ccccc3)oc2c1)c1ccccc1 [compound 27], the “CDNB Assay % Inhibition” value (AmGSTF1 [1]; 100 µM compound) is reported as 4%.

O=c1cc(-c2ccccc2)oc2cc(N3CCCC3)cc(O)c12 [compound 37] was tested, and the “CDNB Assay % Inhibition” value (AmGSTF1 [1]; 100 µM compound) was 46%.

With COc1cc(OC)c2c(=O)cc(-c3cccc(S(C)(=O)=O)c3)oc2c1 [18k] the “CDNB Assay % Inhibition” value (AmGSTF1 [1]; 10 µM compound) was 11%, the “CDNB Assay % Inhibition” value (AmGSTF1 [1]; 100 µM compound) was 60% and the “Thermal Shift Assay ∆Tm” value (AmGSTF1 [2]; 1 µM) was 0.20. For the same molecule, the “Thermal Shift Assay ∆Tm” value (AmGSTF1 [2]; 10 µM) was 0.10 and the “Thermal Shift Assay ∆Tm” value (AmGSTF1 [2]; 100 µM) was 0.30.

O=c1cc(-c2ccccc2)oc2cc(OCc3ccccc3)cc(O)c12 [compound 30] was tested, and the “CDNB Assay % Inhibition” value (AmGSTF1 [1]; 100 µM compound) was 53%.

Cc1cc(=O)c2c(O)cc(O)cc2o1 [compound 12] was tested, and the “Inhibitory activity toward AmGSTF1 in the CDNB assay (in words)” value (AmGSTF1 [1]) was “reduced inhibitory activity” and the “CDNB Assay % Inhibition” value (AmGSTF1 [1]; 100 µM compound) was 63%.

With CCCCCCCCCCCCC(Oc1cc(OC)cc2oc(-c3ccccc3)cc(=O)c12)C(=O)O (stereo not drawn) [compound 46] the “CDNB Assay % Inhibition” value (AmGSTF1 [1]; 1 µM compound) was 75%, the “CDNB Assay % Inhibition” value (AmGSTF1 [1]; 10 µM compound) was 90% and the “CDNB Assay % Inhibition” value (AmGSTF1 [1]; 100 µM compound) was 100%. For the same molecule, the “Thermal Shift Assay ∆Tm” value (AmGSTF1 [2]; 1 µM) was 0.20, the “Thermal Shift Assay ∆Tm” value (AmGSTF1 [2]; 10 µM) was 0.73 and the “Thermal Shift Assay ∆Tm” value (AmGSTF1 [2]; 100 µM) was 1.43.

In the case of O=c1cc(-c2ccccc2)oc2cc(OCC3CCCC3)cc(O)c12 [compound 32], the “CDNB Assay % Inhibition” value (AmGSTF1 [1]; 100 µM compound) is reported as 80%.

With COc1cc(OC)c2c(=O)cc(-c3ccn(C)n3)oc2c1 [compound 26] the “CDNB Assay % Inhibition” value (AmGSTF1 [1]; 10 µM compound) was 19%, the “CDNB Assay % Inhibition” value (AmGSTF1 [1]; 100 µM compound) was 64% and the “Thermal Shift Assay ∆Tm” value (AmGSTF1 [2]; 1 µM) was 0. For the same molecule, the “Thermal Shift Assay ∆Tm” value (AmGSTF1 [2]; 10 µM) was -0.03 and the “Thermal Shift Assay ∆Tm” value (AmGSTF1 [2]; 100 µM) was -0.17.

With CCc1ccc(-c2cc(=O)c3c(OC)cc(OC)cc3o2)cc1 [18e] the “CDNB Assay % Inhibition” value (AmGSTF1 [1]; 10 µM compound) was 11%, the “CDNB Assay % Inhibition” value (AmGSTF1 [1]; 100 µM compound) was 80% and the “Thermal Shift Assay ∆Tm” value (AmGSTF1 [2]; 10 µM) was 0.10. The “Thermal Shift Assay ∆Tm” value (AmGSTF1 [2]; 100 µM) was 0.

For CCCCCC(Oc1cc(OC)cc2oc(-c3ccccc3)cc(=O)c12)C(=O)O (stereo not drawn) [compound 42], the “CDNB Assay % Inhibition” value (AmGSTF1 [1]; 1 µM compound) was 4%, the “CDNB Assay % Inhibition” value (AmGSTF1 [1]; 10 µM compound) was 69% and the “Thermal Shift Assay ∆Tm” value (AmGSTF1 [2]; 1 µM) was 0.17. For the same molecule, the “Thermal Shift Assay ∆Tm” value (AmGSTF1 [2]; 10 µM) was 0.43 and the “Thermal Shift Assay ∆Tm” value (AmGSTF1 [2]; 100 µM) was 2.33.

For CCCCCOc1cc(O)c2c(=O)cc(-c3ccccc3)oc2c1 [compound 33], the “CDNB Assay % Inhibition” value (AmGSTF1 [1]; 100 µM compound) was 87%.

With COc1cc(OC)c2c(=O)cc(N3CCCCC3)oc2c1 [17c] the “CDNB Assay % Inhibition” value (AmGSTF1 [1]; 10 µM compound) was 12%, the “CDNB Assay % Inhibition” value (AmGSTF1 [1]; 100 µM compound) was 67% and the “Thermal Shift Assay ∆Tm” value (AmGSTF1 [2]; 1 µM) was 0.23. For the same molecule, the “Thermal Shift Assay ∆Tm” value (AmGSTF1 [2]; 10 µM) was 0.13 and the “Thermal Shift Assay ∆Tm” value (AmGSTF1 [2]; 100 µM) was 0.30.

COc1ccc(CNc2cc(O)c3c(=O)cc(-c4ccccc4)oc3c2)cc1 [compound 36] was tested, and the “CDNB Assay % Inhibition” value (AmGSTF1 [1]; 100 µM compound) was 45%.

In the case of CCCCCCCCCCC(Oc1cc(OC)cc2oc(-c3ccccc3)cc(=O)c12)C(=O)O (stereo not drawn) [compound 45], the “CDNB Assay % Inhibition” value (AmGSTF1 [1]; 1 µM compound) is reported as 71%, the “CDNB Assay % Inhibition” value (AmGSTF1 [1]; 10 µM compound) is reported as 99% and the “CDNB Assay % Inhibition” value (AmGSTF1 [1]; 100 µM compound) is reported as 100%. The “Thermal Shift Assay ∆Tm” value (AmGSTF1 [2]; 1 µM) was 0.30, the “Thermal Shift Assay ∆Tm” value (AmGSTF1 [2]; 10 µM) was 0.23 and the “Thermal Shift Assay ∆Tm” value (AmGSTF1 [2]; 100 µM) was 1.17.

COc1ccc(-c2cc(=O)c3c(OC)cc(OC)cc3o2)cc1 [18c] was tested, and the “CDNB Assay % Inhibition” value (AmGSTF1 [1]; 10 µM compound) was 15%, the “CDNB Assay % Inhibition” value (AmGSTF1 [1]; 100 µM compound) was 100% and the “Thermal Shift Assay ∆Tm” value (AmGSTF1 [2]; 1 µM) was 0.23. For the same molecule, the “Thermal Shift Assay ∆Tm” value (AmGSTF1 [2]; 10 µM) was 0.17 and the “Thermal Shift Assay ∆Tm” value (AmGSTF1 [2]; 100 µM) was 0.70.

For COc1cc(OC)c2c(=O)cc(NCCCO)oc2c1 [17d], the “CDNB Assay % Inhibition” value (AmGSTF1 [1]; 100 µM compound) was 12%, the “Thermal Shift Assay ∆Tm” value (AmGSTF1 [2]; 1 µM) was 0.23 and the “Thermal Shift Assay ∆Tm” value (AmGSTF1 [2]; 10 µM) was 0.17. For the same molecule, the “Thermal Shift Assay ∆Tm” value (AmGSTF1 [2]; 100 µM) was 0.07.
